Broadly, the IC50 is the concentration needed to halve the response being measured. Usually Ki stands for a measure of affinity in units of concentration, obtained from inhibition or displacement.

For one assay, the target named is human DAT (Homo sapiens, UniProt Q01959). Nature of the assay: DAT transporter inhibitory activity test (neurotransmitter transporter uptake assay kit). The conditions noted are these: DAT stably transfected HEK cells; read-out: DAT (IC50). It counts as cell-based.
human DAT, sequence (Q01959 whole entry): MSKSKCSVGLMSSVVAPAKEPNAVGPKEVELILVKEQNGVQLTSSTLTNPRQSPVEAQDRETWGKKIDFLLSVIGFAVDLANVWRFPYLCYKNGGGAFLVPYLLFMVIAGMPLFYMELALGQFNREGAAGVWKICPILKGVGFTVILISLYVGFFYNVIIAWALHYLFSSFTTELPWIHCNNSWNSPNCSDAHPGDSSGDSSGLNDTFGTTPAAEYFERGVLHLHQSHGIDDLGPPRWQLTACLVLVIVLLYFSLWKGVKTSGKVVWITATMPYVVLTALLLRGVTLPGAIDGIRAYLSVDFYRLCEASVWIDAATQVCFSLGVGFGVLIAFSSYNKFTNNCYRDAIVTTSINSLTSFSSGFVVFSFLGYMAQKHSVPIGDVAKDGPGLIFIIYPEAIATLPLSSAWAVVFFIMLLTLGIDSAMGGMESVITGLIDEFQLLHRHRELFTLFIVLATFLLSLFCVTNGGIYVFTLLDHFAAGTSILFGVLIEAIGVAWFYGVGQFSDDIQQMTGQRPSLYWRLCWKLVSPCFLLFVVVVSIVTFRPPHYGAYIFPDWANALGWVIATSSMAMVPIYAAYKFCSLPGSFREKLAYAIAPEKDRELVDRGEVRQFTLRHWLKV
Assay [1] concerns the target T1, NMDA receptor (N-methyl-D-aspartate receptor, NR1/2A) (Homo sapiens, UniProt Q05586+Q12879).
T1 construct: T2A self-cleaving peptide (linker between NR1 and 2A) (C)
Nature of the assay: NMDA receptor antagonistic activity assay (whole cell manual patch clamp, channel currents). It counts as cell-based. The following applies: HEK293 cells transiently expressing hNR1/2A; current evoked by 100 μM glutamic acid + 100 μM glycine at -70 mV; read-out: NMDAR antagonistic activity (IC50). The procedure:
The effect of the compounds on NMDA receptor (N-methyl-D-aspartate receptor, NR1/2A) channel currents was tested using the electrophysiological whole cell manual patch clamp method.
The HEK293 cell line was cultured in DMEM medium containing 10% fetal bovine serum at 37° C. with 5% carbon dioxide.
Preparation of compound: on the day of testing, the stock solution of the compound of the present disclosure was diluted with DMSO to an intermediate concentration, which was then further diluted with an extracellular solution (containing 100 μM glutamic acid+100 µM glycine) to obtain the final concentration to be tested. […] Electrophysiological recording
Currents evoked by 100 μM glutamic acid (containing 100 μM glycine) were recorded at room temperature from HEK293 cells transiently expressing NMDA receptor channels using the whole-cell patch clamp technique. Glass microelectrodes were formed by pulling a glass electrode blank (BF150-86-10, Sutter) using a puller. The tip resistance after perfusion of electrode internal solution was about 2-5 MΩ. The glass microelectrodes could be connected to a patch clamp amplifier after being inserted into amplifier probes. […] After whole-cell recording was achieved, the cell was clamped at −70 mV. A gravity-driven rapid administration system was used to apply 100 μM glutamic acid (containing 100 μM glycine) to induce the channel current. After the current stabilized, the 100 μM glutamic acid (containing 100 μM glycine) was administered, and changes in current amplitude were observed. The compounds were administered sequentially from low to high concentration, followed by a final administration of 100 μM glutamic acid (containing 100 μM glycine). Each test concentration of the compound was applied for at least 20 s, and at least 2 cells (n≥2) were tested for each concentration. • d. Data processing
Data were analyzed using pClamp, GraphPad Prism 8, and Excel software.
The IC50 of the compound was calculated using the GraphPad Prism 8 software by equation fitting as follows:
[formula] • where X is the Log value of the test concentration of the test sample, Y is the inhibition percentage at the corresponding concentration, and Bottom and Top are the minimum and maximum inhibition percentages, respectively.

The target of a further assay is Sigma2 receptor (Homo sapiens, UniProt Q5BJF2). Nature of the assay: Sigma receptor affinity assay ([3H]-DTG binding), Sigma2R. The conditions noted are these: HEK293 membranes stably expressing Sigma2 receptor, [3H]-DTG 5 nM; read-out: Sigma2R (Ki). The procedure:
(§1) Cell membrane: the membrane protein adopted in the experiment was extracted from an HEK293 cell strain stably expressing Sigmal receptor and an HEK293 cell strain stably expressing Sigma2 receptor, which were constructed by WuXi AppTec.
(§2) • 1) Detection buffer: 50 mM Tris-HCl, pH=7.4, stored at 4° C. • 2) Sigma 1R assay plate washing buffer: 50 mM Tris-HCl, pH=7.4, stored at 4° C.; sigma2R assay plate washing buffer: 50 mM Tris-HCl, 100 mM NaCl, pH=7.4, stored at 4° C. • 3) The compounds were diluted to each working concentration: 4-fold serial gradient dilutions for 8 concentrations.
The affinity inhibition constant Ki was calculated using the Cheng Prusoff equation: […]

In a further assay the target is Sigma1 receptor (Homo sapiens, UniProt Q99720). Briefly: Sigma receptor affinity assay ([3H]-DTG binding), Sigma1R. The procedure: as §1, §2
Sigma1 receptor, sequence (Q99720 whole entry): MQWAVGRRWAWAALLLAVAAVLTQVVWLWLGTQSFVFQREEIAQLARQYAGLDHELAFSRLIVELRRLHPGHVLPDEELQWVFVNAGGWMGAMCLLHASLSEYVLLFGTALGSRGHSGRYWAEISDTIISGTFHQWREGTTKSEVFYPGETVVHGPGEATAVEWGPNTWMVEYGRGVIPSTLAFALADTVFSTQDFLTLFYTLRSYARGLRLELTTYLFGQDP
The cell membrane solution and isotope solution were prepared with the pre-cooled detection buffer, with the following configuration information: the membrane concentration was 10 μg/well, and the final concentration of isotopic ligand [3H]-DTG was 5 nM. • 5) After the test compound and the positive control were diluted to the working concentration, 1 μL was added to each well of the assay plate. […] […]. The affinity inhibition constant Ki was calculated using the Cheng Prusoff equation:

T1 sequence (Q12879 23-1464, other chains not shown): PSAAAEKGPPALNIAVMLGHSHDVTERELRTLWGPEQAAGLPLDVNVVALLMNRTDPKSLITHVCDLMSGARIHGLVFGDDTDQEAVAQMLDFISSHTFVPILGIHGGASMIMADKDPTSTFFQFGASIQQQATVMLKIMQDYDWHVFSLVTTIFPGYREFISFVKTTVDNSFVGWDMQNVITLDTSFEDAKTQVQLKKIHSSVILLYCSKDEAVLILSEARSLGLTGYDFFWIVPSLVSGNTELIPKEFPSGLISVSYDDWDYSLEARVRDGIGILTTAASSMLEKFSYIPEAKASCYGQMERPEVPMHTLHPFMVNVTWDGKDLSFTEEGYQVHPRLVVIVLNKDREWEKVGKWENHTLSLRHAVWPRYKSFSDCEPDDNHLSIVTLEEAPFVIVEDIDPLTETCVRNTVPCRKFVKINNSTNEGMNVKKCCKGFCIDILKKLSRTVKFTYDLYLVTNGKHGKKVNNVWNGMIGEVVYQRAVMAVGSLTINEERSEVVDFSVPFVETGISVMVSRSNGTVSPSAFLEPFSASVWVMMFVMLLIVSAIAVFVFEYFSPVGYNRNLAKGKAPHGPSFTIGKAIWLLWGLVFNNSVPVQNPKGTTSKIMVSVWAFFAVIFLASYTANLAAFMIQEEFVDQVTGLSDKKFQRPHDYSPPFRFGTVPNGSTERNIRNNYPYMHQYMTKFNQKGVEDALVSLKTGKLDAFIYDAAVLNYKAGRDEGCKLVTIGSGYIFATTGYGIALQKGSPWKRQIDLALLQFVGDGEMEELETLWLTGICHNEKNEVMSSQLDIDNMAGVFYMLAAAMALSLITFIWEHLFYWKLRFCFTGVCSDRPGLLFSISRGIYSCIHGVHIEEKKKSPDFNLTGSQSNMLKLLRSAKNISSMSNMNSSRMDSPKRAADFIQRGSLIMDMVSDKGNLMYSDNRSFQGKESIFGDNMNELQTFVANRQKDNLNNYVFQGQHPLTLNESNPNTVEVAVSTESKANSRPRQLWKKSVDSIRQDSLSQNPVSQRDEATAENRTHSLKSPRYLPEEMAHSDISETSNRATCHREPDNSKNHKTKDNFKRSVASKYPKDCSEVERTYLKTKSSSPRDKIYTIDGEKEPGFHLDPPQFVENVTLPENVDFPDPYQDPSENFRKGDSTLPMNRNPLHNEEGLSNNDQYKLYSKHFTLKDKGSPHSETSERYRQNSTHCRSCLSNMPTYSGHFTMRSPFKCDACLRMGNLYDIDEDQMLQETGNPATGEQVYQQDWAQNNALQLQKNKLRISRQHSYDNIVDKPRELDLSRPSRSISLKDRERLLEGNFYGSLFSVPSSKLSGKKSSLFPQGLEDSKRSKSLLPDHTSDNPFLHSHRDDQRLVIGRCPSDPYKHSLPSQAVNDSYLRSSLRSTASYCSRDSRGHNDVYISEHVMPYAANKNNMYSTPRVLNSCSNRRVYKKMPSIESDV
Sigma2 receptor, sequence (Q5BJF2 whole entry, species assumed): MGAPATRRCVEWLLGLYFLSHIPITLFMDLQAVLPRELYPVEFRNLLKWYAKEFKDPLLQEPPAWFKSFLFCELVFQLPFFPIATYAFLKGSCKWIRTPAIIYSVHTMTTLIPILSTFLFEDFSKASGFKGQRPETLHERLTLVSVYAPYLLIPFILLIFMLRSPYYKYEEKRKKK

Take `c1ccc([C@@]2(N3CCCCC3)CCc3[nH]ncc3C2)cc1` [R-A70]: the IC50 at human DAT was determined as 8400 nM; in assay [1] it was 16000 nM.

Regarding “N^4-methyl-4-phenyl-4,5,6,7-tetrahydrobenzothiazole-2,4-diamine [rac-A39]”, the half-maximal inhibitory concentration (IC50) in assay [1] came to 12000 nM.

Regarding `c1ccc([C@]2(N3CCCCC3)CCc3[nH]ncc3C2)cc1` [S-A70], the IC50 in assay [1] is 840 nM.

With `CN[C@@]1(c2ccccc2)CCc2ncsc2C1` [S-A13], the Ki on Sigma2 receptor came out at 257 nM. In addition, the IC50 in assay [1] came to 2500 nM.

Consider `CNC1(c2ccccc2)CCc2sccc2C1` (racemic) [rac-A25, N-methyl-5-phenyl-4,5,6,7-tetrahydrobenzothiophen-5-amine], for which affinity at Sigma1 receptor was put at a Ki of 280 nM.

Regarding `c1ccc([C@]2(N3CCCC3)CCc3[nH]ncc3C2)cc1` [S-A12], the IC50 in assay [1] is 180 nM.
